Results on 2 compounds are retold here after publication PMC12257413, “Discovery of a Novel sp^3‑Rich M1 Positive Allosteric Modulators (PAMs) Chemotype via Scaffold Hopping” (ACS Medicinal Chemistry Letters, 2025).

The target in the assay is T1, rat muscarinic receptor subtype 1 (M1) (Rattus norvegicus, UniProt P08482).
T1 construct: expressed in transfected cells
T1 sequence (P08482 1-460): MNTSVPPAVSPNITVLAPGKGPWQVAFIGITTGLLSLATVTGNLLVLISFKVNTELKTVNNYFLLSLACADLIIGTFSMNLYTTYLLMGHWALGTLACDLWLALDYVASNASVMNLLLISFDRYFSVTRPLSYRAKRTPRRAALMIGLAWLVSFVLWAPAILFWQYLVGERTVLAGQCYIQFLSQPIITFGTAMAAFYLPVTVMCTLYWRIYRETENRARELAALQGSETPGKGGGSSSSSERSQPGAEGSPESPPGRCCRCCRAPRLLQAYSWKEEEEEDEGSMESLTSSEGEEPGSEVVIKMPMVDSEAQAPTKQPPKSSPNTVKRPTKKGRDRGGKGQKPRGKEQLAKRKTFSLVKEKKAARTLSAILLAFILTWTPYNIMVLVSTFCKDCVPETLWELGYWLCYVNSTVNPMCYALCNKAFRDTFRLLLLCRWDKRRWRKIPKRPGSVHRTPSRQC
In words: Calcium mobilization assay in rM1-CHO cells, PAM activity with EC20 acetylcholine. It is filed as cell-based. Conditions: for EC50: read-out: rM1 pEC50 ± SEM (converted). The protocol: page 2: Procedures for Biological Experiments Calcium mobilization assays: To measure the functional activity of positive allosteric modulator (PAM) compounds in a cellular assay, human or rat muscarinic receptor subtype 1 (M1) was stably expressed in the Chinese hamster ovary (CHO) cells to evoke an increase in intracellular calcium to an EC20 concentration of acetylcholine (ACh) agonist. The stable M1-CHO cells were cultured in F12 medium containing 10% fetal bovine serum, 20 mM HEPES, 100 units/mL antibiotics/antimycotic, 0.5 mg/ml G418. All reagents used were from Life Technologies (Carlsbad, CA) unless otherwise noted. Briefly, the day before the assay, stable M1-CHO cells (15,000 cells/20 μL/well) were plated in black-walled, clear-bottomed, 384 well plates (Greiner Bio-One, Monroe, NC) in the culture medium without G418, and then incubated overnight at 37 °C in the presence of 5% CO2. The next day, calcium assay buffer (Hank’s balanced salt solution (HBSS), 20 mM HEPES, 2.5 mM Probenecid, 4.16 mM sodium bicarbonate (Sigma-Aldrich, St. Louis, MO) was prepared to dilute […] calcium indicator dye. […] curves in DMSO using the Bravo Liquid Handler (Agilent, Santa Clara, CA), transferred to a 384 well daughter plates using an Echo acoustic liquid handler (Beckman Coulter, Indianapolis, Indiana), and diluted in assay Buffer to a 2X final concentration. The agonist plates were prepared using acetylcholine (ACh, Sigma-Aldrich, St. Louis, MO) concentrations for the EC20 and ECMAX responses by diluting in assay buffer to a 5X final concentration. The 2X dye solution (2.3 µM) was prepared by mixing a 2.3 mM Fluo-4-AM stock in DMSO with 10% (w/v) pluronic acid F- 127 in a 1:1 ratio in assay buffer. Using a microplate washer (BioTek, Winooski, VT), cells were washed with assay buffer for 3 times to remove medium. After the final wash, 20 μL of assay buffer remained in the cell plates. Immediately, 20 μL of the 2X dye solution (final 1.15 µM) was added to each well of the cell plate using a Multidrop Combi dispenser (Thermo Fisher, Waltham, MA). After cells were incubated with the dye solutions for 45 min at 37 °C in the presence of 5% CO2, the dye solutions were removed and replaced with assay buffer using a microplate washer, leaving 20 μL of assay buffer in the cell plate. The compound, agonist, and cell plates were placed inside the Functional Drug Screening System uCell (FDSS uCell, Hamamatsu, Japan) to measure the calcium flux. The triple add protocol was used to measure Ca kinetics; Compound, ACh for EC20, and ACh for ECMAX adds in an order. Briefly, after establishment of a fluorescence baseline S2 page 3: for 2 seconds (excitation, 480 nm; emission, 530 nm), first add occurred by adding 20 µL of test compound to the cells, and the response was measured for 140 seconds. This is followed by second add; 10 µL (5X) of an EC20 concentration of ACh agonist was added to the cells, and the response of the cells was measured for 125 seconds. Immediately, the third add occurred by adding 12 ul assay buffer or 5X of an EC max concentration of ACh and the response of the cells was measured for 90 seconds. Assay buffer was added to the wells that incubated with compounds followed by EC20 concentration of ACh. Agonists containing ECmax concentration of ACh were added to the wells that incubated with DMSO and assay buffer from the 1st and 2nd adds to measure maximum Ca responses (ECmax). Calcium fluorescence was recorded as fold over basal fluorescence and raw data were normalized to the maximal response to ACh agonist. […]
In general terms: A change in cytosolic calcium serves as a functional read-out for many receptors and channels.

Take `Cn1cc(-c2ccc(Cc3cc(C(=O)N[C@H]4CCCC[C@@H]4O)nn3C3CCCC3)cc2)cn1` [17k]: the “rM1 %ACh Max ± SEM” value was found to be 83 ± 2.8 %ACh Max and the EC50 was 490 nM.
For `Cn1cc(-c2ccc(Cc3cc(C(=O)N[C@H]4CCOC[C@@H]4O)nn3C3CCCC3)cc2)cn1` [17g] the same measures were 83 ± 4.1 %ACh Max and 347 nM.
